{"source": "patent US20250115595A1", "about": "“INHIBITORS OF HYPOXIA-INDUCIBLE FACTORS” (The Johns Hopkins University, priority 2021, published 2025)", "key": {"Hepa1-6 mouse HCC cells": {"system": "Hepa1-6 mouse HCC cells", "test": "RT-qPCR of hypoxia-induced mRNAs in Hepa1-6 cells", "assay_type": "cell-based", "method": "Effects of 32-134D on Hepa1-6 mouse HCC cells and tumors. […] Thus, 32-134D inhibits the ability of hypoxic HCC cells to increase O2 delivery by stimulating angiogenesis (Angpt14, Pgf, Vegfa) or […] anaerobic metabolism by increasing glycolytic flux (Glut1, Pgk1, Ldha).\nHuman Hep3B and mouse Hepa1-6 cells were purchased from ATCC and grown in high-glucose (4.5 mg/ml) Dulbecco's modified Eagle's medium supplemented with 10% (vol/vol) fetal bovine serum and […] at 37° C. in a 5% CO2/95% air incubator (20% O2). Human cell line identity was authenticated by analysis of short tandem repeats, and all cell lines were maintained mycoplasma free, using PCR-based assays conducted at the Johns Hopkins University Genetic Resources Core Facility. Cells were subjected to hypoxia in a controlled atmosphere chamber (PLAS Labs) with ambient gas mixture containing 1% O2 and 5% CO2.\nRNA was extracted using TRIzol Reagent (ThermoFisher). Quantitative Real-time PCR was conducted using SYBR Green PCR Master Mix (BioRad) and reactions were run using the BioRad thermal cycler (BioRad). The mRNA expression of target genes was normalized to the expression of 18S rRNA and the fold change (FC) was calculated based on the threshold cycle (Ct) as […]"}, "[1]": {"test": "Mouse pharmacokinetics in neurosensory retina after intraocular injection", "assay_type": "in vivo", "method": "Pharmacokinetic analysis of 32-134D in the neurosensory retina following intraocular administration was determined by liquid chromatography and tandem mass spectrometry (LC-MS/MS) to quantify the concentration of 32-134D in retinal tissue over 14 days following a single 70-ng intraocular injection of 32-134D (see Methods of all parameters). […] The total exposure (area under the curve or AUClast) was 72.3 nmol*day/g.\nMouse pharmacokinetics: C57BL/6 mice were administered 32-134D at 70 ng or 280 ng as a single intraocular injection. Mice (at least 3 mice per time point) were euthanized at 1, 3, 7, or 14 days after injection. For the 280-ng dose, a 10-day time point was added. 32-134D was quantified in retina by LC-MS/MS as previously described (S. Salman et al., 2022, J Clin Invest 132) with the following modifications. Retina tissue samples were homogenized in […] of 1×PBS (pH 7.4) before extraction. The standard curve and quality control samples were prepared in 1×PBS as a surrogate matrix. Retina tissue samples were then quantitated in nmol/g as: nominal concentration (nM)×initial dilution ([tissue weight (mg)+volume of solvent (μl)]/tissue weight (mg)). For all samples <10 nM, the value was reported as below the limits of detection. If at least on samples was >10 nM and one was <10 nM, then one half that value (5 nM) was imputed to calculate the concentration for that specimen and utilized in the average and standard deviation calculations.\nPharmacokinetic parameters: These were calculated from mean concentration-time data using noncompartmental methods in Phoenix WinNonlin version 8.3 (Certara, Princeton, NJ, USA). The Cmax and time to Cmax (Tmax) were the observed values. The AUClast was calculated using the log-linear trapezoidal method to the last quantifiable time point. The λz was determined from at least 3 points on the slope of the terminal phase of the concentration-time profile using a 1/y2 weighting factor. The T1/2 was determined by dividing 0.693 by […]. T1/2 was not reported if the correlation coefficient (r2) for λz was less than 0.9.\nBioanalytical method for mouse pharmacokinetics: Retina tissue samples were homogenized in 200 μL of 1×PBS (pH 7.4) before extraction. The standard curve and quality control samples were prepared in 1×PBS as a surrogate matrix for all matrices. Tissue homogenate or PBS (25 μL) was added to a borosilicate glass test tube and mixed with 150 μL of acetonitrile containing the internal standard (1 ng/mL of EXP-3179). For blank samples, 150 μL of acetonitrile was added without internal standard. Samples were vortex-mixed and centrifuged (1200×g for 5 minutes at ambient temperature) and transferred to an autosampler vial. […] The column effluent was monitored using an AB Sciex Triple Quadrupole 5500 mass spectrometer. […]"}, "HIF-1α and HIF-2α": {"system": "HIF-1α and HIF-2α", "test": "HIF accumulation in hypoxic HUVECs", "assay_type": "cell-based, human", "settings": "10 μM, 4 hours", "excerpt": "Vascular endothelial cells also secrete angiogenic mediators that contribute to the progression of diabetic eye disease (Y. Qin et al., Sci Adv 8, eabm1896 (2022)). Exposure of human umbilical vein endothelial cells (HUVECs) to hypoxia induced HIF-1α and HIF-2α protein accumulation, which was inhibited by 32-134D (FIG. 30). […] Of note, ANGPT2 and VE-PTP, two emerging targets for the treatment of diabetic eye disease, are both expressed specifically by vascular cells (G. Fachinger, et al., Oncogene 18, 5948-5953 (1999); P. C. Maisonpierre et al., Science 277, 55-60 (1997)).\nCells culture and reagents: MIO-M1 cells were a gift from Dr. Astrid Limb (University College London, Institute of Ophthalmology, London, United Kingdom). MIO-M1 and HUVEC cells were cultured in DMEM with 10% (vol/vol) FBS (Quality Biological) and 1% penicillin/streptomycin (Cellgro). Hypoxia chambers were used to expose cells. Evans Blue (E2129) was purchased from Sigma-Aldrich.\nImmunoblot assays and ELISAs: Cell, neurosensory retina, and D120 retinal organoid lysates were subjected to 4-15% gradient SDS/PAGE (Invitrogen). Immunoblot assays were performed as previously described (X. Xin et al., 2013, Proc Natl Acad Sci USA 110, E3425-3434)."}}, "data": [{"smiles": "Brc1ccc2c(-c3csc(-c4c[nH]c5c(Br)cccc45)n3)c[nH]c2c1", "note": "[Compound 32-134D, 4-(6-bromo-1H-indol-3-yl)-2-(7-bromo-1H-indol-3-yl)thiazole]", "values": [{"measurement": "hypoxia induction of B7h4 and Tim3 mRNAs", "setting": "Hepa1-6 mouse HCC cells; Hepa1-6 cells, 5 μM", "value": "hypoxia-induced in vehicle but not in 32-134D-treated cells"}, {"measurement": "hypoxia induction of Pdl1 mRNA", "setting": "Hepa1-6 mouse HCC cells; Hepa1-6 cells, 5 μM", "value": "hypoxia-induced in vehicle-treated but not in 32-134D-treated cells"}, {"measurement": "hypoxia-induced expression of Glut1 and Ldha", "setting": "Hepa1-6 mouse HCC cells; Hepa1-6 cells, 5 μM", "value": "blocked"}, {"measurement": "decreased Cxcl1, Il6 and Il10 mRNA levels", "setting": "Hepa1-6 mouse HCC cells; cultured Hepa1-6 cells", "value": "not in cultured Hepa1-6 cells exposed to 32-134D"}, {"measurement": "hypoxia-induced IL22 mRNA expression", "setting": "Hepa1-6 mouse HCC cells; cultured Hepa1-6 cells", "value": "inhibited"}, {"measurement": "hypoxia-induced expression of mRNA encoding Angpt14, Pgf, Vegfa and Pgk1", "setting": "Hepa1-6 mouse HCC cells; hypoxic Hepa1-6 cells", "value": "significant dose-dependent inhibition"}, {"measurement": "time retina concentration exceeded in vitro IC50 of 3.5 μM", "setting": "[1]; single 70-ng intraocular injection", "value": 5.25, "unit": "days"}, {"measurement": "total exposure (AUClast) in neurosensory retina", "setting": "[1]; single 70-ng intraocular injection, 14 days", "value": 72.3, "unit": "nmol·days/g"}, {"measurement": "terminal half-life (T1/2) in retina", "setting": "[1]; single intraocular injection 280 ng", "value": 1.8, "unit": "days"}, {"measurement": "AUClast in neurosensory retina", "setting": "[1]; single intraocular injection 280 ng, through 14 days", "value": 147, "unit": "nmol·days/g"}, {"measurement": "hypoxia-induced HIF-1α and HIF-2α protein accumulation", "setting": "HIF-1α and HIF-2α", "value": "inhibited"}]}]}
